From patent publication US20220118121A1, “PROSTATE SPECIFIC MEMBRANE ANTIGEN (PSMA) LIGANDS WITH IMPROVED TISSUE SPECIFICITY” (Ruprecht-Karls-Universität Heidelberg, priority 2019, published 2022)
Where a SMILES comes first, the peptide text is derived from it. [ ]: non-standard residue; d: D form. The star is where a group is joined. DOTA = O=C(O)CN1CCN(CC(=O)O)CCN(CC(=O)*)CCN(CC(=O)O)CC1; EuK = O=C(O)CC[C@H](NC(=O)N[C@@H](CCCCN*)C(=O)O)C(=O)O; 2Nal = N[C@@H](Cc1ccc2ccccc2c1)C(=O)O; Trx = NC[C@H]1CC[C@H](C(=O)O)CC1

Legend:
[1] = system: prostate cancer; conditions: cited from earlier work
[2] = system: PSMA+ LNCaP cells; test: cell surface binding and internalization of radiolabeled compounds; type: cell-based; conditions: for Specific Cell Surface Binding / Specific Internalization / Cell Surface binding / Internalization: 68Ga-labeled
Protocol: (§1) PSMA^+ LNCaP cells (ATCC CRL-1740) were cultured in RPMI medium. Cells were grown at 37° C. in humidified air with 5% C02 and were harvested using trypsin-ethylenediaminetetraacetic acid.
(§2) The competitive cell binding assay and internalization experiments were performed according to Eder M et al. (2012), Bioconjug Chem 23(4):688.
For internalization experiments, 10^5 cells per well were seeded in poly-L-lysine coated 24-well cell culture plates 24 h before incubation. After washing, the cells were incubated with 30 nM of the ^68Ga- or ^177Lu-radiolabeled compound for 45 min at 37° C. and at 4° C., respectively. Cellular uptake was terminated by washing 3 times with 1 mL of ice-cold PBS. To remove surface-bound radioactivity, cells were incubated twice with 0.5 mL glycine-HCl in PBS (50 mM, pH=2.8) for 5 min. The cells were washed with 1 mL of ice-cold PBS and lysed using 0.3 N NaOH (0.5 mL). The surface-bound and the internalized fractions were measured in a gamma counter. The cell uptake was calculated as percent of the initially added radioactivity bound to 10^5 cells [% ID/10^5 cells].

[3] = biological target: T1, PSMA (Homo sapiens, UniProt Q04609); test: competitive cell binding assay vs 68Ga-labeled PSMA-10 on LNCaP cells; conditions: LNCaP cells, 0.8 nM 68Ga-PSMA-10 radioligand; read-out: Specific Binding Affinity IC50
T1 construct: host or cells: LNCaP cells
T1 sequence (Q04609 whole entry): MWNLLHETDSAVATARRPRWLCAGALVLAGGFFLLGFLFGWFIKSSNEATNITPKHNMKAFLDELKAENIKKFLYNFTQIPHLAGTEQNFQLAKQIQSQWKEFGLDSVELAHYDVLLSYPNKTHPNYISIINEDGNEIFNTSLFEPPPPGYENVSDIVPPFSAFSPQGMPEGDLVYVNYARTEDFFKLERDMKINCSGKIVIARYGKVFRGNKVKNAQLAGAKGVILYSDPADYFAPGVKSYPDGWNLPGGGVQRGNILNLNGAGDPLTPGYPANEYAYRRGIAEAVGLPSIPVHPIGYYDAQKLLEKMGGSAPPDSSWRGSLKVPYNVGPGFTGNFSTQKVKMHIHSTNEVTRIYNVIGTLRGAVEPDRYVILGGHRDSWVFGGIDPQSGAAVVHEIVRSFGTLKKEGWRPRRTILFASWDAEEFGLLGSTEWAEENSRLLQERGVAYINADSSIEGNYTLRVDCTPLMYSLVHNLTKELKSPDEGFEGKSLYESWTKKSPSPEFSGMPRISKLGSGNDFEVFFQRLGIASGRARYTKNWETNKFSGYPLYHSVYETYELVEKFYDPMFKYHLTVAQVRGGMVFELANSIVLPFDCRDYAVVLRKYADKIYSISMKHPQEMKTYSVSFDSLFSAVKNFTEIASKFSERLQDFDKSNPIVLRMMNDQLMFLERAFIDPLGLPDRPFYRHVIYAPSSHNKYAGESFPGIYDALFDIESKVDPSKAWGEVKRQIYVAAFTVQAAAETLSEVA
Protocol: as §1, §2
Briefly, the cells (10^5 per well) were incubated with a 0.8 nM solution of ^68Ga-labeled radioligand [Glu-urea-Lys(Ahx)]2-HBED-CC (PSMA-10, precursor ordered from ABX, Radeberg, Germany) in the presence of 12 different concentrations of analyte (0-5000 nM, 100 μL/well). After incubation, the mixture was removed and the wells were washed 3 times with PBS using a multiscreen vacuum manifold (Millipore, Billerica, Mass.). Cell-bound radioactivity was measured using a gamma counter (Packard Cobra II, GMI, Minnesota, USA). The 50% inhibitory concentration (IC50) values were calculated by fitting the data using a nonlinear regression algorithm (GraphPad Software).

| IC50 [3] [nM] | SMILES | PSA value ([1]; both patients) | response of patients ([1]; two patients with extremely advanced and end-stage disease) | Specific Cell Surface Binding [2] [% ID/10^5 cells] | Specific Internalization [2] [% ID/10^5 cells] | Cell Surface binding ([2]; blocked) [% ID/10^5 cells] | Internalization ([2]; blocked) [% ID/10^5 cells] | Cell Surface binding ([2]; not blocked) [% ID/10^5 cells] | Internalization ([2]; not blocked) [% ID/10^5 cells] | Specific cell surface bound ([2]; 177Lu-labeled, LNCaP cells) [% ID/10^5 cells] | Specific internalized ([2]; 177Lu-labeled, LNCaP cells) [% ID/10^5 cells] |
| --- | --- | --- | --- | --- | --- | --- | --- | --- | --- | --- | --- |
| – | O=C([O-])CC[C@H](NC(=O)N[C@@H](CCCCNC(=O)[C@H](Cc1ccc2ccccc2c1)NC(=O)C1CCC(CNC(=O)CN2CCN(CC(=O)[O-])CCN(CC(=O)[O-])CCN(CC(=O)[O-])CC2)CC1)C(=O)[O-])C(=O)[O-].[225Ac].[H+].[H+].[H+] (stereo partly drawn) [225Ac-PSMA-617] | fell below the detectability limit | complete remission | – | – | – | – | – | – | – | – |
| 78.6 ± 44.1 | O=C(O)CC[C@H](NC(=O)N[C@@H](CCCCNC(=O)[C@H](Cc1c[nH]cn1)NC(=O)[C@H](Cc1c[nH]cn1)NC(=O)[C@H](Cc1c[nH]cn1)NC(=O)[C@H](Cc1ccc2ccccc2c1)NC(=O)[C@H]1CC[C@H](CNC(=O)CN2CCN(CC(=O)O)CCN(CC(=O)O)CCN(CC(=O)O)CC2)CC1)C(=O)O)C(=O)O [PS-8, DOTA-CHx-2NaI-(H)3-PSMA] ({DOTA-Trx}-[2Nal]HHH-EuK) | – | – | 0.90 ± 0.03 | 0.51 ± 0.05 | 0.038 ± 0.010 | 0.093 ± 0.033 | 0.945 ± 0.030 | 0.600 ± 0.066 | – | – |
| 37 ± 11.4 | O=C(O)CC[C@H](NC(=O)N[C@@H](CCCCNC(=O)[C@H](Cc1ccc2ccccc2c1)NC(=O)[C@H]1CC[C@H](CNC(=O)[C@H](Cc2c[nH]cn2)NC(=O)[C@H](CCC(=O)O)NC(=O)[C@H](Cc2c[nH]cn2)NC(=O)[C@H](CCC(=O)O)NC(=O)[C@H](Cc2c[nH]cn2)NC(=O)[C@H](CCC(=O)O)NC(=O)CN2CCN(CC(=O)O)CCN(CC(=O)O)CCN(CC(=O)O)CC2)CC1)C(=O)O)C(=O)O [PS-2, DOTA-(EH)3-CHx-2NaI-PSMA] ({DOTA}-EHEHEH[Trx][2Nal]-EuK) | – | – | 1.27 ± 0.15 | 0.61 ± 0.15 | 0.060 ± 0.017 | 0.187 ± 0.032 | 1.333 ± 0.127 | 0.797 ± 0.122 | 9.55 ± 1.61 | 6.00 ± 0.71 |
